In ChEMBL document CHEMBL1201862, “PubChem BioAssay data set” (2004):
Activity calls are given as the source filed them.

How the values were obtained:
[1] = viability of uninfected HEp-2 cells – cell-based, HTS, cytotoxicity control for RSV inhibitor project, dose response (AID 2410); format: functional; conditions: human respiratory syncytial virus
[2] = Trypanosoma cruzi growth suppression in host cells – NIH3T3 host cells, beta-gal luminescence, confirmation (AID 2044); format: functional, cell-based;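 note: intracellular parasites grown in NIH/3T3 mouse fibroblasts as host cells; luminescent beta-galactosidase reporter signal from transgenic T. cruzi replicating inside host cells; inhibitors lower the luminescence signal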
[3] = microbe, parasite or virus in culture; format: functional; conditions: Mycobacterium tuberculosis
[4] = NIH3T3 cell viability loss – ATP luminescence, mouse fibroblasts, counter-screen, dose response (AID 2010); format: functional, cell-based;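 note: cells exposed to compound for about 90 hours before reading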
[5] = Luminescence Cell-Based Dose Retest to Confirm Inhibitors of Cancer Stem Cells. [Related pubchem assays (depositor defined):AID2717, AID2721]; format: functional; conditions: Homo sapiens
[6] = HIV-1 Vif–A3G interaction blockers – biochemical, TR-FRET, GST-Vif 1-94, biotin-A3G peptide, dose response retest, primary screen (AID 1117319); format: functional;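 note: TR-FRET signal of purified GST-Vif binding a biotinylated A3G peptide; inhibitors lower the FRET signal by blocking Vif and A3G binding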
[7] = target: T1, Rac GTPase-activating protein 1 (Homo sapiens, UniProt Q9H0H5); assay: blockers of MgcRacGAP-driven Rac1 GTP hydrolysis – biochemical, ADP Hunter fluorescence, primary and confirmatory, confirmation (AID 624330); format: functional
T1 sequence (Q9H0H5 whole entry): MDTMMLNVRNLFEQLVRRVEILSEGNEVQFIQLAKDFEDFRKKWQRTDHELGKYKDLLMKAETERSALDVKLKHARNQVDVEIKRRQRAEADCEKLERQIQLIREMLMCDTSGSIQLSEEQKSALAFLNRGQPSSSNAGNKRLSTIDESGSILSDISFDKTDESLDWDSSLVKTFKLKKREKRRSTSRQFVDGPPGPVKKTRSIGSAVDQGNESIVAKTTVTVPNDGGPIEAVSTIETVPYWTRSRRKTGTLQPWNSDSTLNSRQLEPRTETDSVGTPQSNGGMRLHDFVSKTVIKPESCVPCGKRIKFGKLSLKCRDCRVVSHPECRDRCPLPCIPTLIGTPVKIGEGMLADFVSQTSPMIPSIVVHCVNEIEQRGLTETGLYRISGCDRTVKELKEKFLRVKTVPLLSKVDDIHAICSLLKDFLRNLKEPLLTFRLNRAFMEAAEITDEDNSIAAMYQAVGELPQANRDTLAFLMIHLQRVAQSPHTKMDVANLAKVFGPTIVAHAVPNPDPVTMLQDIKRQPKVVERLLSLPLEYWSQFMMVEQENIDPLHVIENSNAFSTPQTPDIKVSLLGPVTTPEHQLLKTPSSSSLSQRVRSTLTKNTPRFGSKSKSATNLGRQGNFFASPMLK

[8] = target: T2, DNA repair protein RAD52 homolog (Homo sapiens, UniProt P43351); format: functional, biochemical
T2 sequence (P43351 whole entry): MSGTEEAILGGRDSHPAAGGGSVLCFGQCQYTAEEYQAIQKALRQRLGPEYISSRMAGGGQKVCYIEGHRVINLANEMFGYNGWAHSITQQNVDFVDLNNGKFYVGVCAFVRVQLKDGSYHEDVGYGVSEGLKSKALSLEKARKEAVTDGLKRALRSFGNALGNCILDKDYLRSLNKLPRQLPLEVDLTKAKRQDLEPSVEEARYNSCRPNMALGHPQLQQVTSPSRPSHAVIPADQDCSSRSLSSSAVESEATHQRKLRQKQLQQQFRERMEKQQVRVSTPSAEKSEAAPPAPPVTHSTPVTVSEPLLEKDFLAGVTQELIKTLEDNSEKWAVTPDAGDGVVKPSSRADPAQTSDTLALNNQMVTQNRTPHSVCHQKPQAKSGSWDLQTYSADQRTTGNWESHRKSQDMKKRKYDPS

[9] = target: T3, Heat shock factor protein 1 (Mus musculus, UniProt P38532); assay: decrease of HSF1-responsive luciferase luminescence – cell-based, NIH3T3, dose retest, confirmation (AID 2382); format: functional;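 note: NIH3T3 fibroblasts with HSF1-driven luciferase reporter stressed by proteasome inhibitor MG132; luminescence from HSF1-driven luciferase expression after 8 hours of MG132 stress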
T3 sequence (P38532 whole entry): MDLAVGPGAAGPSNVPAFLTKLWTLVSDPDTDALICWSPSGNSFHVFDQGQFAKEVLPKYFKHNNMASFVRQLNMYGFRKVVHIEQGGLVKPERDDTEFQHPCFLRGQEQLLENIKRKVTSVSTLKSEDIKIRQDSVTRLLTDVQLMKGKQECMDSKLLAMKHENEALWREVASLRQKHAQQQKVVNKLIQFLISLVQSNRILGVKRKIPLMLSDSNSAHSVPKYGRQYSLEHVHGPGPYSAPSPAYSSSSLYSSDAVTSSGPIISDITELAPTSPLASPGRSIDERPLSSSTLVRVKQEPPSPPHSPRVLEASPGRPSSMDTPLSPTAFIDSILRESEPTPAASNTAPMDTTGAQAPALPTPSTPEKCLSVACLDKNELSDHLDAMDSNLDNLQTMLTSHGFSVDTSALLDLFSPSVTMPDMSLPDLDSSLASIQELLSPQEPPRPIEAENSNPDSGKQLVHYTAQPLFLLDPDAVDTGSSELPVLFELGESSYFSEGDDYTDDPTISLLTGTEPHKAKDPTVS

[10] = target: Large T antigen (Simian virus 40, UniProt P03070); format: functional, Betapolyomavirus macacae;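 note: Confirmatory-stage PubChem screen for compounds that inhibit SV40 T antigen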
[11] = target: T4, Histone-lysine N-methyltransferase NSD2 (Homo sapiens, UniProt O96028); format: biochemical
T4 sequence (O96028 whole entry): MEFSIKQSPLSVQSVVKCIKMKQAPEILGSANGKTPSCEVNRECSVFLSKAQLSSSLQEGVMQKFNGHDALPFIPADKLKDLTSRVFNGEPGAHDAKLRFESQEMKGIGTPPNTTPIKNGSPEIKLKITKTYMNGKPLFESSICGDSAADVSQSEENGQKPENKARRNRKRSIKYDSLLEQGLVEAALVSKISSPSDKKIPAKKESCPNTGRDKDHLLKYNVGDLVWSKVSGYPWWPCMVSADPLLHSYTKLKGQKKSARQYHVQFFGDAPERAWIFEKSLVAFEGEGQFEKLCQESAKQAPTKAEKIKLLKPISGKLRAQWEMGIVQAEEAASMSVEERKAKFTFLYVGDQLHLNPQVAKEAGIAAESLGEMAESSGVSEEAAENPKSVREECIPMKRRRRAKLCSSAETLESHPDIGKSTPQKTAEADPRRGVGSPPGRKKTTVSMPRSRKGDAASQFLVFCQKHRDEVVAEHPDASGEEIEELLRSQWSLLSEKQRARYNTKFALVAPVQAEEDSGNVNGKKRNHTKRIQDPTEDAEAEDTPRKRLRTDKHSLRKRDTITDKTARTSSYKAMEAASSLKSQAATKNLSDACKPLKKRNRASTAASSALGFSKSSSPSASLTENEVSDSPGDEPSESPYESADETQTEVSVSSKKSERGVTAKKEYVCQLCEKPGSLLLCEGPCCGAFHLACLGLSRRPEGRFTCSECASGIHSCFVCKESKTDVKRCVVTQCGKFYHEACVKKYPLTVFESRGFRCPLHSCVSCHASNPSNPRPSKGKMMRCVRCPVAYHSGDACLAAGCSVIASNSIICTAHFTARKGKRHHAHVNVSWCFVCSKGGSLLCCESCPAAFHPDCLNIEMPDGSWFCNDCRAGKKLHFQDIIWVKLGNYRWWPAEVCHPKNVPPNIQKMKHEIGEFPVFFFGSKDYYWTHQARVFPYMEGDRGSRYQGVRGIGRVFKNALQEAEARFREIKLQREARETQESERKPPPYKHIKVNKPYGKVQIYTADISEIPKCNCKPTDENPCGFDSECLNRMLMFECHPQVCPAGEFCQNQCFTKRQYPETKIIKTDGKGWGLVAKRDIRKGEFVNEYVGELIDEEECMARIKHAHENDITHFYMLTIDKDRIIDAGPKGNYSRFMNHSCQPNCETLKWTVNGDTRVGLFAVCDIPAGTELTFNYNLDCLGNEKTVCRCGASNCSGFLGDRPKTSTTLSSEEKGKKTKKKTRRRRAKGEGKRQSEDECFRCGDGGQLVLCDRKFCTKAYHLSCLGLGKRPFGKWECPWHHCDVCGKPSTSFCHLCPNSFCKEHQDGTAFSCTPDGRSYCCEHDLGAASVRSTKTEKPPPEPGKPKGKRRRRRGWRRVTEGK

[12] = test system: Streptococcus sp. 'group A'; assay: Streptococcus pyogenes SK(-)GAS viability under kanamycin – luminescence, BacTiterGlo, confirmation, counter-screen for streptokinase expression inhibitor project, dose response (AID 1900); format: functional, organism-based
[13] = target: T5, Streptokinase A (Streptococcus pyogenes serotype M1, UniProt P10520); assay: viability-normalized secreted streptokinase activity reduction – plasminogen activation absorbance, OD405, dose response (AID 1914); format: functional, Streptococcus pyogenes M1 GAS;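 note: secreted streptokinase activity via plasminogen activation per viability signal from cell pellet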
T5 sequence (P10520 whole entry): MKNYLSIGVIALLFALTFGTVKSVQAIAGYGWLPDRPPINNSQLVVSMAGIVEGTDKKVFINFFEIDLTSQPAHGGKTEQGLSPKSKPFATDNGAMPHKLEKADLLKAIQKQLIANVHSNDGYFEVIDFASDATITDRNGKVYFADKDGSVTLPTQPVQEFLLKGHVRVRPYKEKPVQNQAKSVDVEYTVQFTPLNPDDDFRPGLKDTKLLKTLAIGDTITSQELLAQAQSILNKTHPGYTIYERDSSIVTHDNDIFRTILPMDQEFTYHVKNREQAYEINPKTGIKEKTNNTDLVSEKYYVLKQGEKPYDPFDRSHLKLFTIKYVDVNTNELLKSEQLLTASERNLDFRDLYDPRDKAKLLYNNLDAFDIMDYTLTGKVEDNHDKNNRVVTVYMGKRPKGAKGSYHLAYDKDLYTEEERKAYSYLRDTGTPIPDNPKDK

[14] = test system: Streptococcus; assay: GAS UMAA2166 growth inhibition – luminescence, BacTiterGlo, counter-screen for streptokinase expression inhibitor project, dose response (AID 1915); format: functional, organism-based;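 note: potency for reduction of bacterial viability or growth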
[15] = target: Heat shock protein HSP 90-alpha (Homo sapiens, UniProt P07900); format: functional, organism-based
[16] = target: T6, RNA-binding protein pos-1 (Caenorhabditis elegans, UniProt G5EF15); assay: disruptors of C. elegans POS-1 RNA interaction – biochemical, fluorescence polarization, dose response (AID 1964);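 note: purified POS-1 fused to maltose binding protein made in E. coli; potency of compounds blocking POS-1 binding to fluorescent RNA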
T6 sequence (G5EF15 whole entry): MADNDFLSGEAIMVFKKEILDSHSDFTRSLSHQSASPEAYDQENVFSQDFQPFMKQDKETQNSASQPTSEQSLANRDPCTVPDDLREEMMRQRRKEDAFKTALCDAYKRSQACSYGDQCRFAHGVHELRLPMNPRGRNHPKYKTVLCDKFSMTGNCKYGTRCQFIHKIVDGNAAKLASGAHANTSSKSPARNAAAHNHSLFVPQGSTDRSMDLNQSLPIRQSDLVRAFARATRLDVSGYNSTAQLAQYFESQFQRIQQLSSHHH

[17] = target: T7, Zinc finger protein mex-5 (Caenorhabditis elegans, UniProt Q9XUB2); assay: potency of MEX-5 RNA-binding blockers – biochemical, C. elegans, fluorescence polarization, dose response (AID 1960)
T7 sequence (Q9XUB2 whole entry): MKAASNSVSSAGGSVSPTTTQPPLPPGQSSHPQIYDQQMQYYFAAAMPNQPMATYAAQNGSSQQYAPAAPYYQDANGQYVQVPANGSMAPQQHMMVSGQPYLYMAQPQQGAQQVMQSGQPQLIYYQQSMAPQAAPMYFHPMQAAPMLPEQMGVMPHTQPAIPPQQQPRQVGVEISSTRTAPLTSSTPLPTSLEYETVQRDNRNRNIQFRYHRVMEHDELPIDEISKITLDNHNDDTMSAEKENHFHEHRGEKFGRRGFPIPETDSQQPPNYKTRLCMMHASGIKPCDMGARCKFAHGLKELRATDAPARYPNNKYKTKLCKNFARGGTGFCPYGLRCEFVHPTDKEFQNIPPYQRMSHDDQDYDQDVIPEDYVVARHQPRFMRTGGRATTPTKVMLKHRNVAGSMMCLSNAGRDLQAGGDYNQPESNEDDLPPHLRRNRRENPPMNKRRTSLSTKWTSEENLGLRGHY

Chain of Large T antigen (P03070 whole entry): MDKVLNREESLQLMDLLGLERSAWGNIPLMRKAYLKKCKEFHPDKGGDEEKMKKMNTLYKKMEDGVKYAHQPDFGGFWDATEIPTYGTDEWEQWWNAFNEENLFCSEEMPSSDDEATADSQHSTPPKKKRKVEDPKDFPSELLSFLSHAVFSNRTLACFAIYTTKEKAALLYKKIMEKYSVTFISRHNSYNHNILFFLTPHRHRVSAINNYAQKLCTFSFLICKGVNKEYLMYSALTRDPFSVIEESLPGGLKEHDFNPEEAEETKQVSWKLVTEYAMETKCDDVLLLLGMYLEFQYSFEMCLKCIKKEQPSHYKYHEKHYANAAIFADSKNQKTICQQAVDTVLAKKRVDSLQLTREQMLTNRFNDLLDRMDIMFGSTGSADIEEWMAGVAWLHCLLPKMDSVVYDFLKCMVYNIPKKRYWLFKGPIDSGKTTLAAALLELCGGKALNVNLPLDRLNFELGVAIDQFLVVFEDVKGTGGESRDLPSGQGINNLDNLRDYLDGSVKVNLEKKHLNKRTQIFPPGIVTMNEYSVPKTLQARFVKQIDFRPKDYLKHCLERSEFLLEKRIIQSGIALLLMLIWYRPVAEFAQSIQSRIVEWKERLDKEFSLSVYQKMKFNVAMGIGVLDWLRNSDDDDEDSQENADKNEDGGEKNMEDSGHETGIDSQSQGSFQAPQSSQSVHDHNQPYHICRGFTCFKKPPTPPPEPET

For `CCc1ccc2nc(N(CCCN(C)C)C(=O)c3ccc(S(=O)(=O)N4CCCc5ccccc54)cc3)sc2c1`, the CC50 [1] was 12.7 µM (active), the EC50 [2] was 0.187 µM (active) and the CC50 [3] was 13.8 µM (active). For the same compound, the EC50 [4] was 9.15 µM (active) and the AC50 [5] was 6.44 µM (active).

In the case of `CCCc1cc(O)nc(SCC(=O)Nc2cc3c(cc2C(C)=O)OCO3)n1`, the IC50 [6] is reported as > 100 µM (active).

For `Nc1ccc(Nc2ccncc2)cc1`, the IC50 [7] was 247 µM (active) and the AC50 [8] was 16.9 µM (active).

In the case of `COc1cc(/C=N/N=C2/C(=O)Nc3ccccc32)cc(OC)c1O`, the EC50 [9] is reported as > 195 µM (not active), the IC50 [10] is reported as 12.4 µM (active) and the IC50 [7] is reported as 50.9 µM (active). The AC50 [11] was > 20 µM (inactive).

For `CCc1c(C2CC2)ncn1Cc1cccc(-c2ccccc2)c1`, the AC50 [8] was 24.5 µM (active).

With `Cc1ccc(Cl)cc1N1CCN(Cc2nc(O)c3sccc3n2)CC1` the CC50 [3] was > 40 µM (active).

With `COc1cc2c(cc1N)-c1ccc(N)cc1C2` the IC50 [7] was 10.7 µM (active) and the IC50 [6] was > 100 µM (active).

With `O=C(Oc1ccccc1)c1cc(O)c(O)c(O)c1` the AC50 [11] was 4.01 µM (active).

In the case of `Cc1cc(N/N=C/c2ccc(O)cc2)c2cccc(C)c2n1`, the AC50 [8] is reported as 2.56 µM (active).

With `CC1(C)Cc2c(cnn2-c2ccccc2)-c2c1c1ccccc1n2CC(O)CCl` (stereo unspecified) the EC50 [12] was 8.41 µM (active), the EC50 [13] was 13.7 µM (active) and the CC50 [3] was > 40 µM (active). The EC50 [14] was > 150 µM (not active).

In the case of `Cc1cccc(C)c1N=Nc1c(C)cc(O)cc1C`, the AC50 [5] is reported as 5.46 µM (active), the AC50 [15] is reported as 8.38 µM (active) and the AC50 [11] is reported as > 20 µM (inactive).

For `CCCCCOC(=O)c1c(N)n(CCOC)c2nc3ccccc3nc12`, the AC50 [11] was 15.7 µM (active).

In the case of `CN(C)c1ccc2nc3ccc(=[N+](C)C)cc-3sc2c1` [METHYLENE BLUE ANHYDROUS], the EC50 [16] is reported as 187 µM (active), the EC50 [17] is reported as 114 µM (active) and the AC50 [8] is reported as 0.936 µM (active).

In the case of `CC1(c2ccc3noc(-c4ccccc4)c3c2)OCCO1`, the IC50 [6] is reported as > 100 µM (active).

With `CCNC(=O)CC1C(=O)N(c2ccc(C)cc2)C(=O)N1CCc1ccc(OC)c(OC)c1` (stereo unspecified) the IC50 [6] was > 100 µM (active).
